Assay results published in patent US20030073218A1, “High affinity inhibitors for target validation and uses thereof” (Princeton University, priority 1999, published 2003).
Blank lines part the entries; values can stand above or below the compound they belong to.

Columns and labels:
[1] = molecular target: T1, I338G v-Src (Rous sarcoma virus subgroup A, UniProt P00524, DEL77-225/I338G); experiment: biochemical; assay type: biochemical
T1 construct: screened against the catalytic domain of the target kinase, I338G v-Src; made in house; host or cells: E. coli DH5a, pGEX-KT

[2] = molecular target: T2, WT Fyn (Homo sapiens, UniProt P06241); experiment: In Vitro Kinase Inhibition Assay; assay type: biochemical; parameters: in vitro inhibition of Fyn: dose or concentration left out as unconfirmed; details: for IC50: Table 3, wild type
T2 construct: GST (N); made in house; host or cells: E. coli DH5a, pGEX-KT

[3] = molecular target: T3, WT v-Src (Rous sarcoma virus subgroup A, UniProt P00524, DEL77-225); experiment: biochemical; assay type: biochemical; parameters: in vitro inhibition of WT v-Src: dose or concentration left out as unconfirmed
T3 construct: mutant of the v-Src catalytic domain, (the XD4 fragment) were made as glutathione S-transferase (GST) fusion proteins; made in house; host or cells: E. coli (DH5a), pGEX-KT

[4] = system: GST-XD4(V323A, I338A); details: 100 μM analog, 10 μM [γ-32P] ATP
[5] = system: protein tyrosine kinase in murine lymphocyte cell lysate (CF); experiment: Screening of ATP analogs as kinase substrates in murine lymphocyte lysate (anti-phosphotyrosine immunoblot); assay type: biochemical; details: 100 uM nucleotide triphosphate, 37° C., 5 min
Protocol: Screening of Nucleotide Analogs: To identify compounds that would not be accepted as substrates by any existing cellular kinase (53), a panel of synthetic A*TP analogs were screened in a murine lymphocyte lysate (CF) rich in protein tyrosine kinase (13). The assays were performed using spleenocytes (8-30 week old male and female C57/B6 mice from the Princeton University Animal Facility) which were isolated and washed in RPMI-1640 medium containing 5% Bovine Calf Serum (BCS), 1% Hepes and DNAseI (1 μg/ml). Red cells were lysed at 4° C. by treatment with 17 mM tris ammonium chloride pH 7.2. The cells were hypotonically lysed on ice for 10 min. In 1 mM Hepes pH 7.4, 5 mM MgCl2, leupeptin (10 μg/ml), aprotinin (10 μg/ml) and 100 uM PMSF according to the method of Fukazawa et. al. (51). After vortexing and centrifuigation at 500 xg, the supernatant was collected. Cells were stored at 4° C. for 20 min. To attenuate the basal protein phosphorylation level, after which the buffer was adjusted to 20 mM Hepes pH 7.4, 10 mM MgCl2 and 1 mM NaF. Sodium vanadate (100 uM) was then added to inhibit the activity of phosphotyrosine phosphatases.
Each nucleotide triphosphate was added to a final concentration of 100 uM to 5×10^6 cell equivalents and incubated at 37° C. for 5 min. after which 4X Laemmli gel loading buffer was added to the cell lysate to quench the reaction. Proteins were separated by 12.5% SDS-PAGE and transferred to Protran BA85 (Schleicher-Schuell). The blot was probed with the anti-phosphotyrosine monoclonal antibody 4G10 (Upstate Biotechnology) and the bound antibody was detected via enhanced chemiluminescence (cat. 34080, Pierce) following treatment with HRP- coupled goat-anti-mouse antibody (VWR cat. 7101332) according to the manufacturer's instructions.
The cell lysate used includes the protein tyrosine kinase Src, Fyn, Lck, Lyn, Yes, Fgr, Hck, Zap, Syk, Btk, Blk, and other protein tyrosine kinase present in B and T lymphocytes, macrophages, and follicular dendritic cells (13). Molecular size standards (in kilodaltons) are indicated.

[6] = system: B cell receptor (BCR) mediated phosphorylation cascade in murine B cells; experiment: Murine B Cell Assay (phosphotyrosine blot after anti-IgM stimulation); assay type: cell-based; parameters: dose or concentration left out as unconfirmed; details: 30 minutes, anti-IgM cross linked murine B cells
Protocol: Murine B Cell Assay: Splenic lymphocytes were isolated from 6-20 week old Balb/c or C57/B6 mice. The cells were washed out of the spleen into RPMI media containing 1 mg/mL DNase in and the red blood cells were lysed in 17 mM tris-ammonium chloride, pH 7.2, Approximately 4×10^6 cells were incubated at 37° C. for 30 minutes with […] of 3 g or 2 in 1.1% DMSO. B cell stimulation was initiated by the addition of 2 mg of goat anti-mouse IgM (Jackson Immuno Research, cat# 115-005-075) and subsequent incubation for 5 minutes at 37(C. The cells were isolated by centrifugation (13,000 rpm, 2 min) and lysed (lysis buffer: 1% Triton X-100, 50 mM tris pH 7.4, 2 mM EDTA, 150 mM NaCl, […] PMSF, 2 mM sodium orthovanadate, 10 mg/mL leupeptin, 10 mg/mL apoprotin). The cellular debris was then pelleted at 13,000 rpm for 15 min. Cellular proteins were separated by 10% polyacrylamide gel electrophoresis and transferred to a nitrocellulose membrane by Western blotting. Phosphotyrosine containing proteins were visualized by immunoblotting with anti-phosphotyrosine antibody (Upstate Biotechnology, Inc.).

T2 sequence (P06241 1-534 isoform P06241-2): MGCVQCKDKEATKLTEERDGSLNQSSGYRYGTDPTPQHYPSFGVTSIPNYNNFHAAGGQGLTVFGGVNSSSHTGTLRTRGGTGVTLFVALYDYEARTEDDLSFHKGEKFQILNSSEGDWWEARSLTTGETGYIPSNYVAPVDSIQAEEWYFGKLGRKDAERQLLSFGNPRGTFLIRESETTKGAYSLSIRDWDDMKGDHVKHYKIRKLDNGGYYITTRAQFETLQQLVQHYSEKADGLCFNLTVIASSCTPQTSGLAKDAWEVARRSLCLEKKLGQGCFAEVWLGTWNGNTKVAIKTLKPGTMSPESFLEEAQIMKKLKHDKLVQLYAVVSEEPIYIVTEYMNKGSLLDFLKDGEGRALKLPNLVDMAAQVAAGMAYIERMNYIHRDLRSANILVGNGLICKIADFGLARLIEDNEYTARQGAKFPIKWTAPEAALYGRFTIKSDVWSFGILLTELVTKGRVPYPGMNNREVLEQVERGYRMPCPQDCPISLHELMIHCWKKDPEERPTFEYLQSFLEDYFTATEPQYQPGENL

Compound: CC(C)(C)c1ccc(-c2nn(C(C)(C)C)c3ncnc(N)c23)cc1 [Compound 6g, 4-amino-1-(tert-butyl)-3-(p-tert-butylphenyl)pyrazolo[3,4 d]pyrimidine]
IC50 [1]: 99 nM
IC50 [2]: 9.2 µM
IC50 [3]: 65 µM

Compound: O=P(O)(O)OP(=O)(O)OP(=O)(O)OC[C@H]1O[C@@H](n2cnc3c(NC4CCCCC4)ncnc32)[C@H](O)[C@@H]1O [ATP analog 11, N^6-(cyclohexyl)ATP]
inhibition of GST-XD4(V323A, I338A) catalyzed RR-Src phosphorylation [4]: almost as well as the wild-type kinase, GST-XD4, is inhibited by its natural substrate ATP

Compound: CC(C)(C)n1nc(-c2cccc(Oc3ccccc3)c2)c2c(N)ncnc21 [Compound 6c, 4-amino-1-(tert-butyl)-3-(m-phenoxyphenyl)pyrazolo[3,4-d]pyrimidine]
IC50 [1]: 140 nM
IC50 [2]: 0.8 µM
IC50 [3]: 40 µM

Compound: CC(C)(C)n1nc(-c2ccccc2)c2c(NCc3ccccc3)ncnc21 [Compound 4e, 4-benzylamino-1-tert-butyl-3-phenylpyrazolo[3,4-d]pyrimidine]
inhibition of I338G v-Src (in words) [1]: only poor to moderate inhibition
inhibition of WT Fyn (in words) [2]: sufficiently orthogonal to WT Fyn

Compound: CC(=O)Nc1ncnc2c1ncn2[C@@H]1O[C@H](COP(=O)(O)OP(=O)(O)OP(=O)(O)O)[C@@H](O)[C@H]1O [ATP analog 3, N^6(acetyl)ATP]
ability to serve as cellular protein tyrosine kinase substrate (level of protein tyrosine phosphorylation) [5]: some ability to serve as cellular protein tyrosine kinase substrates

Compound: CC(C)ONc1ncnc2c1ncn2[C@@H]1O[C@H](COP(=O)(O)OP(=O)(O)OP(=O)(O)O)[C@@H](O)[C@H]1O [ATP analog 4, N^6(i-propoxy)ATP]
ability to serve as cellular protein tyrosine kinase substrate (level of protein tyrosine phosphorylation) [5]: little or no protein phosphorylation

Compound: CC(C)(C)n1nc(-c2cccc(OCc3ccccc3)c2)c2c(N)ncnc21 [Compound 6d, 4-amino-1-(tert-butyl)-3-(m-benzyloxyphenyl)pyrazolo[3,4-d]pyrimidine]
IC50 [1]: 7 nM
inhibition of I338G v-Src (in words) [1]: low nM concentrations
IC50 [2]: 6 µM
IC50 [3]: 26 µM

Compound: O=P(O)(O)OP(=O)(O)OP(=O)(O)OC[C@H]1O[C@@H](n2cnc3c(NCc4ccccc4)ncnc32)[C@H](O)[C@@H]1O [ATP analog 5, N^6-(benzyl)ATP]
inhibition of GST-XD4(V323A, I338A) catalyzed RR-Src phosphorylation [4]: almost as well as the wild-type kinase, GST-XD4, is inhibited by its natural substrate ATP
ability to serve as cellular protein tyrosine kinase substrate (level of protein tyrosine phosphorylation) [5]: little or no protein phosphorylation

Compound: CC(C)(C)n1nc(-c2cccc(OCc3c(Cl)cccc3Cl)c2)c2c(N)ncnc21 [Compound 6e, 4-amino-1-(tert-butyl)-3-(m-(2′,6′-dichloro)benzyloxyphenyl) pyrazolo[3,4-d]pyrimidine]
IC50 [1]: 130 nM
IC50 [2]: 84 µM

inhibition of WT Fyn (in words) [2]: highly potent (low nM)
Compound: CC(C)(C)n1nc(-c2ccccc2)c2c(N)ncnc21 [2 (FIG. 14), 4-Amino-1-tert-butyl-3-phenylpyrazolo[3,4-d] pyrimidine, reference compound]
phosphotyrosine pattern of B cell stimulation [6]: significant reduction in tyrosine phosphorylation

Compound: CONc1ncnc2c1ncn2[C@@H]1O[C@H](COP(=O)(O)OP(=O)(O)OP(=O)(O)O)[C@@H](O)[C@H]1O [ATP analog 1, N^6(methoxy)ATP]
ability to serve as cellular protein tyrosine kinase substrate (level of protein tyrosine phosphorylation) [5]: some ability to serve as cellular protein tyrosine kinase substrates

Compound: O=P(O)(O)OP(=O)(O)OP(=O)(O)OC[C@H]1O[C@@H](n2cnc3c(NOCc4ccccc4)ncnc32)[C@H](O)[C@@H]1O [ATP analog 6, N^6-(benxyloxy)ATP]
ability to serve as cellular protein tyrosine kinase substrate (level of protein tyrosine phosphorylation) [5]: little or no protein phosphorylation

Compound: OCC1OC(n2cnc3c(NOC4CCCC4)ncnc32)C(O)C1O (stereo not drawn) [1 (FIG. 14A), N-6 cyclopentyloxyadenosine]
in vitro inhibition of Fyn [2]: no detectable in vitro inhibition
in vitro inhibition of WT v-Src [3]: no detectable in vitro inhibition

Compound: Cc1ccc(-c2nn(C(C)(C)C)c3ncnc(N)c23)cc1 [PP1, 4-amino-1-tert-butyl-3-(p-methylphenyl)pyrazolo[3,4-d]pyrimidine, reference compound]
inhibition of WT Fyn (in words) [2]: highly potent (low nM)

Compound: CC(C)(C)n1nc(-c2ccccc2)c2c(NCC3CCCC3)ncnc21 [Compound 4b, 4-cyclopentylmethylamino-1-tert-butyl-3-phenylpyrazolo[3,4-d]pyrimidine]
inhibition of I338G v-Src (in words) [1]: only poor to moderate inhibition
inhibition of WT Fyn (in words) [2]: sufficiently orthogonal to WT Fyn

Compound: CC(C)(C)n1nc(Cc2ccc3ccccc3c2)c2c(N)ncnc21 [Compound 6j, 4-amino-1-(tert-butyl)-3-(2′-naphthylmethyl)pyrazolo[3,4-d]pyrimidine]
IC50 [1]: 20 nM
inhibition of I338G v-Src (in words) [1]: medium potency
IC50 [3]: > 300 µM

Compound: CC(C)(C)n1nc(-c2ccccc2)c2c(NCc3ccco3)ncnc21 [Compound 4d, 4-2′-furylmethylamino-1-tert-butyl-3-phenylpyrazolo[3,4-d]pyrimidine]
inhibition of I338G v-Src (in words) [1]: only poor to moderate inhibition
inhibition of WT Fyn (in words) [2]: sufficiently orthogonal to WT Fyn

Compound: CCONc1ncnc2c1ncn2[C@@H]1O[C@H](COP(=O)(O)OP(=O)(O)OP(=O)(O)O)[C@@H](O)[C@H]1O [ATP analog 2, N^6(ethoxy)ATP]
ability to serve as cellular protein tyrosine kinase substrate (level of protein tyrosine phosphorylation) [5]: some ability to serve as cellular protein tyrosine kinase substrates

Compound: O=P(O)(O)OP(=O)(O)OP(=O)(O)OC[C@H]1O[C@@H](n2cnc3c(NOC4CCCC4)ncnc32)[C@H](O)[C@@H]1O [ATP analog 9, N^6(cyclopentyloxy)ATP]
inhibition of GST-XD4(V323A, I338A) catalyzed RR-Src phosphorylation [4]: almost as well as the wild-type kinase, GST-XD4, is inhibited by its natural substrate ATP

IC50 [2]: 0.13 µM
Compound: CC(C)(C)n1nc(-c2ccc3ccccc3c2)c2c(N)ncnc21 [Compound 6b, 4-amino-1-(tert-butyl)-3-(2′-naphthyl)pyrazolo[3,4-d]pyrimidine]
